Experimental data reported in patent publication US4299767A, “Benzodiazepine derivatives” (Hoffmann-La Roche Inc., priority 1978, dated 1981).
Like-named read-outs stand apart in the source and are kept apart here.

Legend:
[1] = test system: intestinal resorption of cholesterol; experiment: inhibition of the intestinal resorption of cholesterol (cholesterol recovery, CHOREC); format: in vivo, normal female Fullinsdorf albino rats; details: rats
Protocol: The compounds to be tested are administered to groups of 6 normal female Fullinsdorf albino rats (body weight about 70 g) by oral intubation. This is followed immediately by oral intubation of a test meal containing radioactive cholesterol. Consecutively, feces are collected for three days, freeze dried and pulverized. An aliquot is burned for evaluation of fecal radioactivity. Controls excrete about 40-50% of the dietary radioactive cholesterol called cholesterol recovery (CHOREC) and arbitrarily set 100%. Animals treated with a substance inhibiting the intestinal resorption of cholesterol show a higher excretion of radioactive cholesterol in comparison with controls. The cholesterol recovery (CHOREC) of treated animals is expressed in % of controls.
(§1) The following Table contains results obtained with the aforementioned particularly preferred compounds inhibiting the intestinal resorption of cholesterol. For each of these compounds there are given the dose(s) administered (in μMol/kg p.o) as well as the cholesterol recovery (CHOREC), expressed in % of controls. Moreover, the Table contains data relating to the acute toxicity of the compounds investigated (LD 50 in mg/kg in the case of a single oral administration to rats): […]

[2] = acute toxicity, single oral administration to rats; details: rat, in vivo, p.o.
From the text: as §1

aldosterone = experiment: aldosterone-antagonistic properties in adrenalectomised rats (urine volume, sodium and potassium excretion); format: in vivo, adrenalectomised female Holtzmann rats; details: Rattus norvegicus, po
Protocol: If benzodiazepine derivatives of formula I are administered to the animals before the treatment with aldosterone, then there is observed, in comparison with the animals which are treated only with aldosterone (control animals), a pronounced increase of the sodium excretion (i.e. the sodium retention caused by aldosterone is antagonised), whereas the potassium excretion and the urine volume are influenced to a lesser extent.
The standard experiment is carried out as follows:
Female Holtzmann rates (150-180 g) are bilaterally adrenalectomised 70 to 74 hours before the beginning of the experiment. After the operation, the animals receive a customary rat dry feed and 0.9% sodium chloride solution for drinking. 16-17 hours before the beginning of the experiment the feed is removed from the animals, but they can still drink, as before, 0.9% sodium chloride solution ad libitum. At the beginning of the experiment the substance to be tested as an aldosterone-antagonist is administered to the animals by means of a stomach probe. 30 minutes later the animals receive a subcutaneous injection of […] of aldosterone. After a further 90 minutes, the urinary bladders of the animals are emptied by careful suprapublic pressure, whereupon the animals are placed individually in metabolic cages without food and without drink. The urine of the animals is then collected for 3hours, whereupon their urinary bladders are once more emptied. The spontaneously excreted urine and the remaining urine obtained at the conclusion of the experiment by pressing-out the urinary bladders are collected in graduated centrifuge glasses. Sodium and potassium concentrations in the urine are determined with a flame photometer.
(§2) The following Table contains results obtained in the previously described experiment with representative benzodiazepine derivatives of formula I. In this Table there are given for each benzodiazepine derivative in question the dosage administered (in mg/kg p.o.) as well as the percentage variation in the urine volume, the sodium excretion and the potassium excretion in comparison with the control animals (i.e. in comparison with the animals treated only with aldosterone). Moreover, the Table contains data relating to the acute toxicity of the benzodiazepine derivatives investigated (LD 50 in mg/kg in the case of a single oral administration to mice).

[3] = acute toxicity, single oral administration to mice; details: mouse, in vivo, p.o.
From the text: as §2

SMILES | cholesterol recovery (CHOREC), in % of controls ([1]; 10 μMol/kg p.o.) [%] | cholesterol recovery (CHOREC), in % of controls ([1]; 30 μMol/kg p.o.) [%] | cholesterol recovery (CHOREC), in % of controls ([1]; 100 μMol/kg p.o.) [%] | cholesterol recovery (CHOREC), in % of controls ([1]; 1000 μMol/kg p.o.) [%] | LD50 [2] [mg/kg] | cholesterol recovery (CHOREC), in % of controls ([1]; 300 μMol/kg p.o.) [%] | response vs control in vivo at 10 mg/kg (aldosterone; read-out: potassium excretion [K+], in %, based on control animals) [%] | response vs control in vivo at 10 mg/kg (aldosterone; read-out: sodium excretion [Na+], in %, based on control animals) [%] | response vs control in vivo at 10 mg/kg (aldosterone; read-out: urine volume, in %, based on control animals) [%] | LD50 [3] [mg/kg]
CC1N=C(c2ccccc2Cl)c2c(ccc(NC(=O)NCCO)c2Br)N(C)C1=O (racemic) [Example 48, rac-1-[6-bromo-5-(o-chlorophenyl)-2,3-dihydro-1,3-dimethyl-2-oxo-2H-1,4-benzodiazepin-7-yl]-3-(2-hydroxyethyl)urea] | 150 | 157 | 168 | 187 | > 5000 |  |  |  |  | 
CC1N=C(c2ccccc2Cl)c2c(ccc(NC(=O)NCCO)c2Cl)N(C)C1=O (racemic) [Example 49, rac-1-[6-chloro-5-(o-chlorophenyl)-2,3-dihydro-1,3-dimethyl-2-oxo-1H-1,4-benzodiazepin-7-yl]-3-(2-hydroxyethyl)urea] |  |  |  | 188 | > 5000 |  |  |  |  | 
CC1N=C(c2ccccc2F)c2c(ccc(NC(=O)NCCO)c2Br)N(C)C1=O (racemic) [Example 50, rac-1-[6-bromo-5-(o-fluorophenyl)-2,3-dihydro-1,3-dimethyl-2-oxo-1H-1,4-benzodiazepin-7-yl]-3-(2-hydroxyethyl)urea] | 132 | 160 | 155 | 189 | > 5000 | 169 |  |  |  | 
CCNC(=O)Nc1ccc2c(c1Cl)C(c1ccccc1F)=NCC(=O)N2C [Example 34, 1-[6-chloro-5-(o-fluorophenyl)-2,3-dihydro-1-methyl-2-oxo-1H-1,4-benzodiazepin-7-yl]-3-ethylurea] |  |  |  |  |  |  | 149 | 271 | 156 | 2500 to 5000
CN1C(=O)CN=C(c2ccccc2F)c2c1ccc(NC(=O)N1CCOCC1)c2Cl [Example 51, N-[6-chloro-5-(o-fluorophenyl)-2,3-dihydro-1-methyl-2-oxo-1H-1,4-benzodiazepin-7-yl]-4-morpholinecarboxamide] |  |  |  | 186 | 1250 to 2500 |  |  |  |  | 
